{"source": "ChEMBL document CHEMBL4402510", "about": "“Caprazamycins: Promising lead structures acting on a novel antibacterial target MraY” (Eur J Med Chem, 2019)"}
{"test_system": "Mycobacterium tuberculosis variant bovis", "experiment": "Antibacterial activity against Mycobacterium bovis", "assay_type": "functional", "units": {"MIC": "µg/mL"}}
{"molecule": "CO[C@@H]1[C@@H](OC)[C@H](C)O[C@@H](OC(=O)C[C@@H](C)CC(=O)O[C@@H](CCCCCCCCCCC(C)C)CC(=O)O[C@H]2CN(C)[C@@H]([C@H](O[C@@H]3O[C@H](CN)[C@@H](O)[C@H]3O)[C@H]3O[C@@H](n4ccc(=O)[nH]c4=O)[C@H](O)[C@@H]3O)C(=O)N(C)[C@@H]2C(=O)O)[C@@H]1OC", "MIC": 3.13}
{"test_system": "Mycobacterium tuberculosis variant bovis", "experiment": "Antibacterial activity against Mycobacterium bovis after 20 hrs by NCCLS-based two-fold broth dilution method", "assay_type": "functional", "units": {"MIC": "µg/mL"}}
{"molecule": "CCCCc1ccc(NC(=O)C2=CCN(C)[C@@H]([C@H](O[C@@H]3O[C@H](CN)[C@@H](O)[C@H]3O)[C@H]3O[C@@H](n4ccc(=O)[nH]c4=O)[C@H](O)[C@@H]3O)C(=O)N2C)cc1", "MIC": 3.13}
{"test_system": "Mycobacterium tuberculosis variant bovis", "experiment": "Antibacterial activity against Mycobacterium bovis Ravenel", "assay_type": "functional", "units": {"MIC": "µg/mL"}}
{"molecule": "CCCCCCCCCCCCNC(=O)C1=CCN(C)[C@@H]([C@H](O[C@@H]2O[C@H](CN)[C@@H](O)[C@H]2O)[C@H]2O[C@@H](n3ccc(=O)[nH]c3=O)[C@H](O)[C@@H]2O)C(=O)N1C", "MIC": 1.56}
{"molecule": "CCCCCCCCCCOC(=O)C1=CCN(C)[C@@H]([C@H](O[C@@H]2O[C@H](CN)[C@@H](O)[C@H]2O)[C@H]2O[C@@H](n3ccc(=O)[nH]c3=O)[C@H](O)[C@@H]2O)C(=O)N1C", "MIC": 12.5}
{"molecule": "CCCCCCCCCNC(=O)C1=CCN(C)[C@@H]([C@H](O[C@@H]2O[C@H](CN)[C@@H](O)[C@H]2O)[C@H]2O[C@@H](n3ccc(=O)[nH]c3=O)[C@H](O)[C@@H]2O)C(=O)N1C", "MIC": 1.56}
{"molecule": "CCCCCCCc1ccc(NC(=O)C2=CCN(C)[C@@H]([C@H](O[C@@H]3O[C@H](CN)[C@@H](O)[C@H]3O)[C@H]3O[C@@H](n4ccc(=O)[nH]c4=O)[C@H](O)[C@@H]3O)C(=O)N2C)cc1", "MIC": 0.78}
{"molecule": "CCCCCCCCNC(=O)C1=CCN(C)[C@@H]([C@H](O[C@@H]2O[C@H](CN)[C@@H](O)[C@H]2O)[C@H]2O[C@@H](n3ccc(=O)[nH]c3=O)[C@H](O)[C@@H]2O)C(=O)N1C", "MIC": 1.56}
{"molecule": "C=CCCCCCCCCCOC(=O)C1=CCN(C)[C@@H]([C@H](O[C@@H]2O[C@H](CN)[C@@H](O)[C@H]2O)[C@H]2O[C@@H](n3ccc(=O)[nH]c3=O)[C@H](O)[C@@H]2O)C(=O)N1C", "MIC": 12.5}
{"molecule": "CCCCCCCCCCCCCCCCNC(=O)C1=CCN(C)[C@@H]([C@H](O[C@@H]2O[C@H](CN)[C@@H](O)[C@H]2O)[C@H]2O[C@@H](n3ccc(=O)[nH]c3=O)[C@H](O)[C@@H]2O)C(=O)N1C", "MIC": 3.13}
{"molecule": "CCc1ccc(NC(=O)C2=CCN(C)[C@@H]([C@H](O[C@@H]3O[C@H](CN)[C@@H](O)[C@H]3O)[C@H]3O[C@@H](n4ccc(=O)[nH]c4=O)[C@H](O)[C@@H]3O)C(=O)N2C)cc1", "MIC": 1.56}
{"molecule": "CCCCCCCCCCCCCCc1ccc(NC(=O)C2=CCN(C)[C@@H]([C@H](O[C@@H]3O[C@H](CN)[C@@H](O)[C@H]3O)[C@H]3O[C@@H](n4ccc(=O)[nH]c4=O)[C@H](O)[C@@H]3O)C(=O)N2C)cc1", "MIC": 3.13}
{"molecule": "CCCCCNC(=O)C1=CCN(C)[C@@H]([C@H](O[C@@H]2O[C@H](CN)[C@@H](O)[C@H]2O)[C@H]2O[C@@H](n3ccc(=O)[nH]c3=O)[C@H](O)[C@@H]2O)C(=O)N1C", "MIC": 6.25}
{"molecule": "CCCCCCCCCCCCCNC(=O)C1=CCN(C)[C@@H]([C@H](O[C@@H]2O[C@H](CN)[C@@H](O)[C@H]2O)[C@H]2O[C@@H](n3ccc(=O)[nH]c3=O)[C@H](O)[C@@H]2O)C(=O)N1C", "MIC": 1.56}
{"molecule": "CCCCCCCCCCCCCCCNC(=O)C1=CCN(C)[C@@H]([C@H](O[C@@H]2O[C@H](CN)[C@@H](O)[C@H]2O)[C@H]2O[C@@H](n3ccc(=O)[nH]c3=O)[C@H](O)[C@@H]2O)C(=O)N1C", "MIC": 1.56}
{"molecule": "CN1C(=O)[C@H]([C@H](O[C@@H]2O[C@H](CN)[C@@H](O)[C@H]2O)[C@H]2O[C@@H](n3ccc(=O)[nH]c3=O)[C@H](O)[C@@H]2O)N(C)CC=C1C(=O)Nc1ccc(C2CCCCC2)cc1", "MIC": 1.56}
{"molecule": "CCCCOc1ccc(NC(=O)C2=CCN(C)[C@@H]([C@H](O[C@@H]3O[C@H](CN)[C@@H](O)[C@H]3O)[C@H]3O[C@@H](n4ccc(=O)[nH]c4=O)[C@H](O)[C@@H]3O)C(=O)N2C)cc1", "MIC": 3.13}
{"molecule": "CCCCCCCCCCCCCCCCCCNC(=O)C1=CCN(C)[C@@H]([C@H](O[C@@H]2O[C@H](CN)[C@@H](O)[C@H]2O)[C@H]2O[C@@H](n3ccc(=O)[nH]c3=O)[C@H](O)[C@@H]2O)C(=O)N1C", "MIC": 1.56}
{"molecule": "CC/C=C/CCCCCCCCCCOC(=O)C1=CCN(C)[C@@H]([C@H](O[C@@H]2O[C@H](CN)[C@@H](O)[C@H]2O)[C@H]2O[C@@H](n3ccc(=O)[nH]c3=O)[C@H](O)[C@@H]2O)C(=O)N1C", "MIC": 6.25}
{"molecule": "CCCCCCNC(=O)C1=CCN(C)[C@@H]([C@H](O[C@@H]2O[C@H](CN)[C@@H](O)[C@H]2O)[C@H]2O[C@@H](n3ccc(=O)[nH]c3=O)[C@H](O)[C@@H]2O)C(=O)N1C", "MIC": 3.13}
{"molecule": "CCCCCCc1ccc(NC(=O)C2=CCN(C)[C@@H]([C@H](O[C@@H]3O[C@H](CN)[C@@H](O)[C@H]3O)[C@H]3O[C@@H](n4ccc(=O)[nH]c4=O)[C@H](O)[C@@H]3O)C(=O)N2C)cc1", "MIC": 0.2}
{"molecule": "CCCCCCCNC(=O)C1=CCN(C)[C@@H]([C@H](O[C@@H]2O[C@H](CN)[C@@H](O)[C@H]2O)[C@H]2O[C@@H](n3ccc(=O)[nH]c3=O)[C@H](O)[C@@H]2O)C(=O)N1C", "MIC": 1.56}
{"molecule": "CCCCCCCCCCCCCCCCCCCCCNC(=O)C1=CCN(C)[C@@H]([C@H](O[C@@H]2O[C@H](CN)[C@@H](O)[C@H]2O)[C@H]2O[C@@H](n3ccc(=O)[nH]c3=O)[C@H](O)[C@@H]2O)C(=O)N1C", "MIC": 1.56}
{"molecule": "CCCCCCCC/C=C/CCCCCCCCNC(=O)C1=CCN(C)[C@@H]([C@H](O[C@@H]2O[C@H](CN)[C@@H](O)[C@H]2O)[C@H]2O[C@@H](n3ccc(=O)[nH]c3=O)[C@H](O)[C@@H]2O)C(=O)N1C", "MIC": 3.13}
{"molecule": "CCCCCCCCCCCCCCCCCCOC(=O)C1=CCN(C)[C@@H]([C@H](O[C@@H]2O[C@H](CN)[C@@H](O)[C@H]2O)[C@H]2O[C@@H](n3ccc(=O)[nH]c3=O)[C@H](O)[C@@H]2O)C(=O)N1C", "MIC": 3.13}
{"molecule": "CCCCCCCCCCCCCCNC(=O)C1=CCN(C)[C@@H]([C@H](O[C@@H]2O[C@H](CN)[C@@H](O)[C@H]2O)[C@H]2O[C@@H](n3ccc(=O)[nH]c3=O)[C@H](O)[C@@H]2O)C(=O)N1C", "MIC": 1.56}
{"molecule": "CCCCCCCOc1ccc(NC(=O)C2=CCN(C)[C@@H]([C@H](O[C@@H]3O[C@H](CN)[C@@H](O)[C@H]3O)[C@H]3O[C@@H](n4ccc(=O)[nH]c4=O)[C@H](O)[C@@H]3O)C(=O)N2C)cc1", "MIC": 0.78}
{"molecule": "CCCCCCCCCCCCCCCCCCCCNC(=O)C1=CCN(C)[C@@H]([C@H](O[C@@H]2O[C@H](CN)[C@@H](O)[C@H]2O)[C@H]2O[C@@H](n3ccc(=O)[nH]c3=O)[C@H](O)[C@@H]2O)C(=O)N1C", "MIC": 0.78}
{"molecule": "CCCCCCCCCCCNC(=O)C1=CCN(C)[C@@H]([C@H](O[C@@H]2O[C@H](CN)[C@@H](O)[C@H]2O)[C@H]2O[C@@H](n3ccc(=O)[nH]c3=O)[C@H](O)[C@@H]2O)C(=O)N1C", "MIC": 1.56}
{"molecule": "CCCCc1ccc(NC(=O)C2=CCN[C@@H]([C@H](O[C@@H]3O[C@H](CN)[C@@H](O)[C@H]3O)[C@H]3O[C@@H](n4ccc(=O)[nH]c4=O)[C@H](O)[C@@H]3O)C(=O)N2C)cc1", "MIC": 3.13}
{"molecule": "CCCCCCCCCCNC(=O)C1=CCN(C)[C@@H]([C@H](O[C@@H]2O[C@H](CN)[C@@H](O)[C@H]2O)[C@H]2O[C@@H](n3ccc(=O)[nH]c3=O)[C@H](O)[C@@H]2O)C(=O)N1C", "MIC": 1.56}
{"molecule": "CCCCCCCCCCCCCCCCCNC(=O)C1=CCN(C)[C@@H]([C@H](O[C@@H]2O[C@H](CN)[C@@H](O)[C@H]2O)[C@H]2O[C@@H](n3ccc(=O)[nH]c3=O)[C@H](O)[C@@H]2O)C(=O)N1C", "MIC": 1.56}
{"molecule": "CN1C(=O)[C@H]([C@H](O[C@@H]2O[C@H](CN)[C@@H](O)[C@H]2O)[C@H]2O[C@@H](n3ccc(=O)[nH]c3=O)[C@H](O)[C@@H]2O)N(C)CC=C1C(=O)NC1CCCCCCCCCCC1", "MIC": 1.56}
{"molecule": "CCCCCCCCCCCCCCCCCCCNC(=O)C1=CCN(C)[C@@H]([C@H](O[C@@H]2O[C@H](CN)[C@@H](O)[C@H]2O)[C@H]2O[C@@H](n3ccc(=O)[nH]c3=O)[C@H](O)[C@@H]2O)C(=O)N1C", "MIC": 1.56}
{"molecule": "CCCCCCCCCCCCCOC(=O)C1=CCN(C)[C@@H]([C@H](O[C@@H]2O[C@H](CN)[C@@H](O)[C@H]2O)[C@H]2O[C@@H](n3ccc(=O)[nH]c3=O)[C@H](O)[C@@H]2O)C(=O)N1C", "MIC": 3.13}
